The results in this text go back to patent US9393221B2, “Methods and compounds for reducing intracellular lipid storage” (THE GENERAL HOSPITAL CORPORATION, priority 2011, dated 2016).

For this assay, the system named is ATGL-KO iPSCs. Kind of assay: High throughput iPSC chemical screening, Oil Red O (ORO) lipid accumulation. On Z-score: test concentration or dose not given here. The format is cell-based, mouse.
Setting [1] is: normalized ORO level vs DMSO-treated cells, compound present during 7 days differentiation, 96-well, negative = decrease in lipid accumulation.

Where a name gives a salt, the structure may show the parent alone. Read-outs that look alike come from different tables or passages of the source.

In turn, `S=C(NC1CCCCC1)N1CCC(c2cnc[nH]2)CC1` [Thioperamide maleate] gave a Z-score under setting [1] of −0.6114.

Turning to `CSc1ccc2c(c1)N(CCC1CCCCN1C)c1ccccc1S2` (stereo not shown) [Thioridazine hydrochloride], the Z-score under setting [1] is reported as −1.1212.

Under setting [1], `O=C(O)CNC(=O)C(CS)Cc1ccccc1` (stereo not shown) [Thiorphan] displayed a Z-score of 1.245.

Regarding `C=C(NC(=O)C(=C)NC(=O)c1csc(C2=N[C@@H]3c4csc(n4)[C@H]4NC(=O)c5csc(n5)[C@H]([C@](C)(O)[C@@H](C)O)NC(=O)[C@H]5CSC(=N5)/C(=C/C)NC(=O)[C@H]([C@@H](C)O)NC(=O)c5csc(n5)[C@]3(CC2)NC(=O)[C@H](C)NC(=O)C(=C)NC(=O)[C@H](C)NC(=O)[C@H]([C@@H](C)CC)N[C@@H]2C=Cc3c([C@H](C)O)cc(nc3[C@H]2O)C(=O)O[C@@H]4C)n1)C(N)=O` [Thiostrepton], the Z-score under setting [1] turned out to be 13.9158.

As for `CCCCCCCCCCCCCCCC[N+](C)(C)CCN(Cc1ccc(OC)cc1)c1ncccn1` [Thonzonium bromide], the Z-score under setting [1] amounted to 2.814.

Consider `N[C@@H](Cc1cc(I)c(Oc2cc(I)c(O)c(I)c2)c(I)c1)C(=O)O` [Thyroxine (L)], for which the Z-score under setting [1] amounted to 0.1955.

`c1ccc2[nH]c(-c3cscn3)nc2c1` [Tiabendazole] returned a Z-score under setting [1] of −0.3752.

On to `CCN(CC)CCNC(=O)c1cc(S(C)(=O)=O)ccc1OC` [Tiapride hydrochloride], for which the Z-score under setting [1] is −1.0178.

Compound `CC(C(=O)O)c1ccc(C(=O)c2ccccc2)s1` (stereo not shown) [Tiaprofenic acid] had a Z-score under setting [1] of −0.6271.

Under setting [1], `CC1(C)S[C@@H]2[C@H](NC(=O)[C@H](C(=O)O)c3ccsc3)C(=O)N2[C@H]1C(=O)O` [Ticarcillin sodium] returned a Z-score of −0.1446.

With `Clc1ccccc1CN1CCc2sccc2C1` [Ticlopidine hydrochloride], the Z-score under setting [1] is recorded as −1.0702.

Compound `CCNC1(c2cccs2)CCCCC1=O.Cl` (stereo not shown) [Tiletamine hydrochloride] showed a Z-score under setting [1] of 1.2858.

Under setting [1], `CCS(=O)(=O)CCn1c([N+](=O)[O-])cnc1C` [Tinidazole] came in with a Z-score of −0.3977.

As for `NC[C@H]1O[C@H](O[C@H]2[C@H](O)[C@@H](O[C@H]3O[C@H](CO)[C@@H](O)[C@H](N)[C@H]3O)[C@H](N)C[C@@H]2N)[C@H](N)C[C@@H]1O` [Tobramycin], the Z-score under setting [1] is 1.694.

`Cc1cccc(C)c1NC(=O)C(C)N` (stereo not shown) [Tocainide hydrochloride] had a Z-score under setting [1] of 0.6038.

For `Cc1c(C)c2c(c(C)c1O)CC[C@@](C)(CCC[C@H](C)CCC[C@H](C)CCCC(C)C)O2` [Tocopherol (R,S)], the Z-score is recorded as −1.721.

Under setting [1], `Cc1ccc(S(=O)(=O)NC(=O)NN2CCCCCC2)cc1` [Tolazamide] returned a Z-score of 1.554.

As for `c1ccc(CC2=NCCN2)cc1` [Tolazoline hydrochloride], the Z-score under setting [1] is recorded as 0.3256.

Consider `CCCCNC(=O)NS(=O)(=O)c1ccc(C)cc1` [Tolbutamide], for which the Z-score under setting [1] was −0.8086.

Take `Cc1c(Cl)cccc1Nc1ccccc1C(=O)O` [Tolfenamic acid]: the Z-score under setting [1] is reported as −0.8256.

Take `Cc1ccc(C(=O)c2ccc(CC(=O)O)n2C)cc1` [Tolmetin sodium salt dihydrate]: the Z-score under setting [1] is given as −1.0425.

Take `Cc1cccc(N(C)C(=S)Oc2ccc3ccccc3c2)c1` [Tolnaftate]: the Z-score under setting [1] is on record as 0.2441.

Under setting [1], `C[C@H]1CC[C@]2(NC1)O[C@H]1C[C@H]3[C@@H]4CC[C@H]5C[C@@H](O)CC[C@]5(C)[C@H]4CC[C@]3(C)[C@H]1[C@@H]2C` [Tomatidine] registered a Z-score of −0.7378.

Compound `C[C@H]1CC[C@]2(NC1)O[C@H]1C[C@H]3[C@@H]4CC[C@H]5C[C@@H](O[C@@H]6O[C@H](CO)[C@H](O[C@@H]7O[C@H](CO)[C@@H](O)[C@H](O[C@@H]8OC[C@@H](O)[C@H](O)[C@H]8O)[C@H]7O[C@@H]7O[C@H](CO)[C@@H](O)[C@H](O)[C@H]7O)[C@H](O)[C@H]6O)CC[C@]5(C)[C@H]4CC[C@]3(C)[C@H]1[C@@H]2C` [Tomatine, reference compound] showed a Z-score under setting [1] of −2.0901.

Under setting [1], `Cc1cccc(Nc2ccncc2S(=O)(=O)NC(=O)NC(C)C)c1` [Torsemide] returned a Z-score of 0.1541.

For `CCCCNc1c(C(=O)OCC)c(C)nc2c1cnn2CC` [Tracazolate hydrochloride], the Z-score under setting [1] is −1.6368.

The compound `NC[C@H]1CC[C@H](C(=O)O)CC1` [Tranexamic acid] came in with a Z-score under setting [1] of 0.05824.

With `N[C@@H]1C[C@H]1c1ccccc1` [Tranylcypromine hydrochloride], the Z-score under setting [1] is −0.2314.

Under setting [1], `O=c1n(CCCN2CCN(c3cccc(Cl)c3)CC2)nc2ccccn12` [Trazodone hydrochloride] had a Z-score of 0.03974.

`C(#CCN1CCCC1)CN1CCCC1.Cl.Cl` [Tremorine dihydrochloride]: the Z-score under setting [1] amounted to 0.3583.

For `C[C@]12C=CC(=O)C=C1CC[C@H]1[C@@H]3C[C@@H](O)[C@](O)(C(=O)CO)[C@@]3(C)C[C@H](O)[C@@]12F` [Triamcinolone], the Z-score under setting [1] was −1.1722.

`Nc1nc(N)c2nc(-c3ccccc3)c(N)nc2n1` [Triamterene] displayed a Z-score under setting [1] of −1.3039.

As to `CCOC1O[C@H]([C@@H](COCc2ccccc2)OCc2ccccc2)[C@H](OCc2ccccc2)[C@H]1O` (stereo partly shown) [Tribenoside], under setting [1], the Z-score is −0.7171.

In turn, `COP(=O)(OC)C(O)C(Cl)(Cl)Cl` (stereo not shown) [Trichlorfon] had a Z-score under setting [1] of 0.2655.

The compound `NS(=O)(=O)c1cc2c(cc1Cl)NC(C(Cl)Cl)NS2(=O)=O` (stereo not shown) [Trichlormethiazide] came in with a Z-score under setting [1] of −1.2081.

Consider `CC[N+](CC)(CC)CCC(O)(c1ccccc1)C1CCCCC1.[Cl-]` (stereo not shown) [Tridihexethyl chloride], for which, under setting [1], the Z-score is on record as 0.01977.

`CN1CCN(CCCN2c3ccccc3Sc3ccc(C(F)(F)F)cc32)CC1` [Trifluoperazine dihydrochloride] registered a Z-score under setting [1] of 0.5386.

As to `CN(C)CCCN1c2ccccc2Sc2ccc(C(F)(F)F)cc21` [Triflupromazine hydrochloride], the “Rank in normalized ORO score from screen” value (glycolytic switch compounds) is 644. Under setting [1], this compound came in with a Z-score of 0.04449.

In turn, `O=c1[nH]c(=O)n([C@H]2C[C@H](O)[C@@H](CO)O2)cc1C(F)(F)F` [Trifluridine] returned a Z-score under setting [1] of 21.7513.

As to `CC(=O)Oc1cc(C(F)(F)F)ccc1C(=O)O` [Triflusal], under setting [1], the Z-score is reported as −1.2041.

`C[n+]1cccc(C(=O)[O-])c1` [Trigonelline] yielded a Z-score under setting [1] of −1.518.

On to `Cl.OC(CCN1CCCCC1)(c1ccccc1)C1CCCCC1` (stereo not shown) [Trihexyphenidyl-D,L Hydrochloride], for which the Z-score under setting [1] was determined as 1.258.

Regarding `COc1ccc(CN2CCNCC2)c(OC)c1OC` [Trimetazidine dihydrochloride], the Z-score under setting [1] is listed as 0.9654.

Compound `CN1C(=O)OC(C)(C)C1=O` [Trimethadione] yielded a Z-score under setting [1] of −0.8958.

For `COc1cc(C(=O)NCc2ccc(OCCN(C)C)cc2)cc(OC)c1OC` [Trimethobenzamide hydrochloride], under setting [1], the Z-score came to 1.06.

For `COc1cc(Cc2cnc(N)nc2N)cc(OC)c1OC` [Trimethoprim], the Z-score under setting [1] was −0.9568.

Turning to `COc1cc2c(c(OC)c1OC)-c1ccc(O)c(=O)cc1C(N)CC2` (stereo not shown) [Trimethylcolchicinic acid], the Z-score under setting [1] was 0.4127.

`Cc1cc2cc3c(C)cc(=O)oc3c(C)c2o1` [Trioxsalen] displayed a Z-score under setting [1] of 1.359.

`Cc1ccc(/C(=C\CN2CCCC2)c2ccccn2)cc1` [Triprolidine hydrochloride] had a Z-score under setting [1] of −1.0644.

Consider `CO[C@H]1C[C@H](O[C@H]2[C@H](C)[C@@H](O[C@@H]3O[C@H](C)C[C@H](N(C)C)[C@H]3OC(C)=O)[C@@H](C)C[C@@]3(CO3)C(=O)[C@H](C)[C@@H](OC(C)=O)[C@@H](C)[C@@H](C)OC(=O)[C@@H]2C)O[C@@H](C)[C@@H]1OC(C)=O` [Troleandomycin], for which, under setting [1], the Z-score is listed as −0.5429.

Turning to `Cc1c(C)c2c(c(C)c1O)CCC(C)(C(=O)O)O2` (stereo not shown) [Trolox], the Z-score under setting [1] is given as −1.1986.

Compound `CN1[C@@H]2CC[C@H]1C[C@@H](O)C2` [Tropine] returned a Z-score under setting [1] of −0.2952.

In the case of `COc1cc2c3cc1Oc1cc(ccc1O)C[C@@H]1c4c(cc(OC)c(O)c4Oc4ccc(cc4)C[C@@H]3N(C)CC2)CC[N+]1(C)C.Cl.O.O.O.O.O.[Cl-]` [Tubocurarine chloride pentahydrate (+)], the Z-score under setting [1] amounted to 0.8961.

As for `CO[C@@H]1C=C2CCN(C)[C@@H]2C2c3cc4c(cc3C(=O)OC21)OCO4.O=[N+]([O-])O` (stereo partly shown) [Ungerine nitrate], the Z-score under setting [1] was −1.1174.

`COc1ccccc1N1CCN(CCCNc2cc(=O)n(C)c(=O)n2C)CC1` [Urapidil hydrochloride] registered a Z-score under setting [1] of −1.2828.

With `C[C@H](CCC(=O)O)[C@H]1CC[C@H]2[C@@H]3[C@@H](O)C[C@@H]4C[C@H](O)CC[C@]4(C)[C@H]3CC[C@]12C` [Urosiol], the Z-score under setting [1] is reported as 0.02187.

For the compound `C[C@H]1[C@H](C)CC[C@]2(C(=O)O)CC[C@]3(C)C(=CC[C@@H]4[C@@]5(C)CC[C@H](O)C(C)(C)[C@@H]5CC[C@]43C)[C@H]12` [Ursolic acid], the Z-score under setting [1] was −0.1541.

With `CN[C@H](CC(C)C)C(=O)N[C@H]1C(=O)N[C@@H](CC(N)=O)C(=O)N[C@H]2C(=O)N[C@H]3C(=O)N[C@H](C(=O)N[C@H](C(=O)O)c4cc(O)cc(O)c4-c4cc3ccc4O)[C@H](O)c3ccc(c(Cl)c3)Oc3cc2cc(c3O[C@@H]2O[C@H](CO)[C@@H](O)[C@H](O)[C@H]2O[C@H]2C[C@](C)(N)[C@H](O)[C@H](C)O2)Oc2ccc(cc2Cl)[C@H]1O` [Vancomycin hydrochloride], the Z-score was −0.5906.

`COc1ccc(CCN(C)CCCC(C#N)(c2ccc(OC)c(OC)c2)C(C)C)cc1OC.Cl` (stereo not shown) [Verapamyl hydrochloride] returned a Z-score under setting [1] of 0.4436.

Take `Nc1ncnc2c1ncn2[C@@H]1O[C@H](CO)[C@@H](O)[C@@H]1O` [Vidarabine]: the Z-score under setting [1] is on record as −0.443.

Turning to `C=CC(N)CCC(=O)O` (stereo not shown) [Vigabatrin], the Z-score under setting [1] is on record as −0.7771.

Under setting [1], `CC[C@]12CCCN3CCc4c(n(c5ccccc45)[C@@](O)(C(=O)OC)C1)[C@@H]32` [Vincamine] gave a Z-score of −0.4826.

Under setting [1], `O=c1cc(-c2ccc(O)cc2)oc2c([C@@H]3O[C@H](CO)[C@@H](O)[C@H](O)[C@H]3O)c(O)cc(O)c12` [Vitexin] yielded a Z-score of −0.0089.
